Test results taken from US20240246931A1, “COMPOUNDS AS PD1/PD-L1 INHIBITORS AND METHODS THEREOF” (JUBILANT PRODEL LLC, priority 2021, published 2024).

Biological target: T1, PD-1/PD-L1 interaction (Homo sapiens, UniProt Q9NZQ7)
T1 construct: purchased CisBio 63ADK000CPAPEG
Experiment: PD-1/PD-L1 HTRF binding assay (CisBio kit)
Conditions: HTRF PD1/PD-L1 inhibition assay
Experimental: PD-L1 Enzyme Assay: Homogenous Time-Resolved Fluorescence (HTRF) Binding Assay
All binding studies were performed using PD-1/PD-L1 Binding Assay Kit from CisBio (Catalog #63ADK000CPAPEG), according to the manufacturer's protocol. The interaction between Tag1-PD-1 and […] was detected by anti-Tag1-Eu^3+ (HTRF donor) and anti-Tag2-XL665 (HTRF acceptor). When the donor and acceptor antibodies were brought to close proximity due to PD-1 and PD-L1 binding, excitation of the donor antibody triggered fluorescent resonance energy transfer (FRET) towards the acceptor antibody, which in turn emitted specifically at 665 nm. This specific signal is positively proportional to PD-1/PD-L1 interaction. The compounds blocking PD-1/PD-L1 interaction will cause a reduction in HTRF signal. The necessary reagents were mixed in the following order: 2 μL compounds (or diluents buffer), 4 μL PD-L1 protein, 4 μL PD-1 protein. After an incubation of 15 minutes, 5 μL of anti-Tag1-Eu^3+ and 5 μL of anti-Tag2-XL665 were added. The plate was sealed and incubated at room temperature for 1 h. The fluorescence emission was read at two different wavelengths (665 nm and 620 nm) on a BMG PheraStar® multi-plate reader.
Results were calculated from the 665 nm and 620 nm fluorescence signal and expressed in HTRF ratio=(665 nm/620 nm)×10^4.
Compounds having IC50<100 nM are designated as “A”; 100-500 nM are designated as “B”; and >500 nM are designated as “C” respectively.

T1 sequence (Q9NZQ7 19-238 limits assumed): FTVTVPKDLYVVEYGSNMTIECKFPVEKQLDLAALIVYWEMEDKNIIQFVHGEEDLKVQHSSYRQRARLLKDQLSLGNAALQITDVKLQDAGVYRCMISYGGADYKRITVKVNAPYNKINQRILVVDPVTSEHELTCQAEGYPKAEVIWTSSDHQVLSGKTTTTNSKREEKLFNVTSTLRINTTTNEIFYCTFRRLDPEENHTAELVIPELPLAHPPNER

| IC50 [nM] | SMILES |
| --- | --- |
| 100 to 500 | Cc1c(COc2cc(OCc3cncc(C#N)c3)c(CN3CC(F)(F)CCC3CO)c3c2CCC3)cccc1-c1ccccc1 (stereo not drawn) [Example 12, 5-(((4-((5,5-difluoro-2-(hydroxymethyl)piperidin-1-yl)methyl)-7-((2-methyl-[1,1′-biphenyl]-3-yl)methoxy)-2,3-dihydro-1H-inden-5-yl)oxy)methyl)nicotinonitrile] |
| < 100 | Cc1c(COc2cc(OCc3cncc(C#N)c3)c(CN3CCC(CO)CC3)c3c2CCC3)cccc1-c1ccccc1 [Example 17, 5-(((4-((4-(hydroxymethyl)piperidin-1-yl)methyl)-7-((2-methyl-[1,1′-biphenyl]-3-yl)methoxy)-2,3-dihydro-1H-inden-5-yl)oxy)methyl)nicotinonitrile] |
| < 100 | Cc1c(COc2cc(OCc3cncc(C#N)c3)c(CN3CCC[C@@H]3CO)c3c2CCC3)cccc1-c1ccccc1 [Example 19, (R)-5-(((4-((2-(hydroxymethyl)pyrrolidin-1-yl)methyl)-7-((2-methyl-[1,1′-biphenyl]-3-yl)methoxy)-2,3-dihydro-1H-inden-5-yl)oxy)methyl)nicotinonitrile] |
| < 100 | Cc1c(COc2cc(OCc3cncc(C#N)c3)c(CN3CCCCCC3CO)c3c2CCC3)cccc1-c1ccccc1 (stereo not drawn) [Example 20, 5-(((4-((2-(hydroxymethyl)azepan-1-yl)methyl)-7-((2-methyl-[1,1′-biphenyl]-3-yl)methoxy)-2,3-dihydro-1H-inden-5-yl)oxy)methyl)nicotinonitrile] |
| < 100 | Cc1c(COc2cc(OCc3cncc(C#N)c3)c(CN3CCC[C@@H](CO)C3)c3c2CCC3)cccc1-c1ccccc1 [Example 21, (R)-5-(((4-((3-(hydroxymethyl)piperidin-1-yl)methyl)-7-((2-methyl-[1,1′-biphenyl]-3-yl)methoxy)-2,3-dihydro-1H-inden-5-yl)oxy)methyl)nicotinonitrile 2,2,2-trifluoroacetate] |
| < 100 | Cc1c(COc2cc(OCc3cncc(C#N)c3)c(CN3CCCCC3(CO)CO)c3c2CCC3)cccc1-c1ccccc1 [Example 22, 5-(((4-((2,2-bis(hydroxymethyl)piperidin-1-yl)methyl)-7-((2-methyl-[1,1′-biphenyl]-3-yl)methoxy)-2,3-dihydro-1H-inden-5-yl)oxy)methyl)nicotinonitrile 2,2,2-trifluoroacetate] |
| 100 to 500 | N#Cc1cccc(COc2cc(OCc3cccc(-c4ccccc4)c3C#N)c3c(c2CN2CCCC4CC42CO)CCC3)c1 (stereo not drawn) [Example 36, 3-(((6-((3-cyanobenzyl)oxy)-7-((1-(hydroxymethyl)-2-azabicyclo[4.1.0]heptan-2-yl)methyl)-2,3-dihydro-1H-inden-4-yl)oxy)methyl)-[1,1′-biphenyl]-2-carbonitrile] |
| 100 to 500 | Cc1c(COc2cc(OCc3cnn(C)c3)c(CN3CCCC[C@H]3CO)c3c2CCC3)cccc1-c1ccccc1 [Example 39, (S)-(1-((5-((1-methyl-1H-pyrazol-4-yl)methoxy)-7-((2-methyl-[1,1′-biphenyl]-3-yl)methoxy)-2,3-dihydro-1H-inden-4-yl)methyl)piperidin-2-yl)methanol] |
| 100 to 500 | Cc1c(COc2cc(OCc3cn(C)cn3)c(CN3CCC3CO)c3c2CCC3)cccc1-c1ccccc1 (stereo not drawn) [Example 41, (1-((5-((1-methyl-1H-imidazol-4-yl)methoxy)-7-((2-methyl-[1,1′-biphenyl]-3-yl)methoxy)-2,3-dihydro-1H-inden-4-yl)methyl)azetidin-2-yl)methanol] |
| < 100 | Cc1c(COc2cc(OCc3cc(C#N)c[n+]([O-])c3)c(CN3CCCC[C@H]3CO)c3c2CCC3)cccc1-c1ccccc1 [Example 45, (S)-3-cyano-5-(((4-((2-(hydroxymethyl)piperidin-1-yl)methyl)-7-((2-methyl-[1,1′-biphenyl]-3-yl)methoxy)-2,3-dihydro-1H-inden-5-yl)oxy)methyl)pyridine 1-oxide] |
| 100 to 500 | Cc1c(COc2cc(OCc3cncc(C#N)c3)c(CN3CCC[C@H]3CO)c3c2CCC3)cccc1-c1ccc(F)cc1 [Example 48, (S)-5-(((7-((4′-fluoro-2-methyl-[1,1′-biphenyl]-3-yl)methoxy)-4-((2-(hydroxymethyl)pyrrolidin-1-yl)methyl)-2,3-dihydro-1H-inden-5-yl)oxy)methyl)nicotinonitrile] |
| < 100 | Cc1c(COc2cc(OCc3cncc(C#N)c3)c(C(=O)NC3CCN(C)CC3)c3c2CCC3)cccc1-c1ccccc1 [Example 49, 5-((5-cyanopyridin-3-yl)methoxy)-7-((2-methyl-[1,1′-biphenyl]-3-yl)methoxy)-N-(1-methylpiperidin-4-yl)-2,3-dihydro-1H-indene-4-carboxamide] |

More lines, now with the values behind:

| SMILES | IC50 [nM] |
| --- | --- |
| Cc1c(COc2cc(OCc3cncc(C#N)c3)c(CN3CCN(C)CC3CO)c3c2CCC3)cccc1-c1ccccc1 (stereo not drawn) [Example 13, 5-(((4-((2-(hydroxymethyl)-4-methylpiperazin-1-yl)methyl)-7-((2-methyl-[1,1′-biphenyl]-3-yl)methoxy)-2,3-dihydro-1H-inden-5-yl)oxy)methyl)nicotinonitrile] | < 100 |
| Cc1c(COc2cc(OCc3cncc(C#N)c3)c(CN3CC(CO)C3)c3c2CCC3)cccc1-c1ccccc1 [Example 14, 5-(((4-((3-(hydroxymethyl)azetidin-1-yl)methyl)-7-((2-methyl-[1,1′-biphenyl]-3-yl)methoxy)-2,3-dihydro-1H-inden-5-yl)oxy)methyl)nicotinonitrile] | < 100 |
| Cc1c(COc2cc(OCc3cncc(C#N)c3)c(CN3CC[C@@H](CO)C3)c3c2CCC3)cccc1-c1ccccc1 [Example 15, (R)-5-(((4-((3-(hydroxymethyl)pyrrolidin-1-yl)methyl)-7-((2-methyl-[1,1′-biphenyl]-3-yl)methoxy)-2,3-dihydro-1H-inden-5-yl)oxy)methyl)nicotinonitrile] | < 100 |
| Cc1c(COc2cc(OCc3cncc(C#N)c3)c(CN3CCC[C@H](CO)C3)c3c2CCC3)cccc1-c1ccccc1 [Example 16, (S)-5-(((4-((3-(hydroxymethyl)piperidin-1-yl)methyl)-7-((2-methyl-[1,1′-biphenyl]-3-yl)methoxy)-2,3-dihydro-1H-inden-5-yl)oxy)methyl)nicotinonitrile] | < 100 |
| Cc1c(COc2cc(OCc3cncc(C#N)c3)c(CN3CC[C@H](CO)C3)c3c2CCC3)cccc1-c1ccccc1 [Example 18, (S)-5-(((4-((3-(hydroxymethyl)pyrrolidin-1-yl)methyl)-7-((2-methyl-[1,1′-biphenyl]-3-yl)methoxy)-2,3-dihydro-1H-inden-5-yl)oxy)methyl)nicotinonitrile] | < 100 |
| Cc1c(COc2cc(OCCCCF)c(CN3CC[C@H]3CO)c3c2CCC3)cccc1-c1ccccc1 [Example 33, (S)-(1-((5-(4-fluorobutoxy)-7-((2-methyl-[1,1′-biphenyl]-3-yl)methoxy)-2,3-dihydro-1H-inden-4-yl)methyl)azetidin-2-yl)methanol] | 100 to 500 |
| Cc1c(COc2cc(OCc3cscn3)c(CN3CCC3CO)c3c2CCC3)cccc1-c1ccccc1 (stereo not drawn) [Example 40, (1-((7-((2-methyl-[1,1′-biphenyl]-3-yl)methoxy)-5-(thiazol-4-ylmethoxy)-2,3-dihydro-1H-inden-4-yl)methyl)azetidin-2-yl)methanol] | 100 to 500 |
| Cc1c(COc2cc(OCc3cncnc3)c(CN3CCC3CO)c3c2CCC3)cccc1-c1ccccc1 (stereo not drawn) [Example 42, (1-((7-((2-methyl-[1,1′-biphenyl]-3-yl)methoxy)-5-(pyrimidin-5-ylmethoxy)-2,3-dihydro-1H-inden-4-yl)methyl)azetidin-2-yl)methanol] | < 100 |
| Cc1c(COc2cc(OCc3cocn3)c(CN3CCC3CO)c3c2CCC3)cccc1-c1ccccc1 (stereo not drawn) [Example 43, (1-((7-((2-methyl-[1,1′-biphenyl]-3-yl)methoxy)-5-(oxazol-4-ylmethoxy)-2,3-dihydro-1H-inden-4-yl)methyl)azetidin-2-yl)methanol] | 100 to 500 |
| Cc1c(COc2cc(OCc3cncc(C#N)c3)c(CN3CCCC[C@H]3CO)c3c2CCC3)cccc1-c1ccc(F)cc1 [Example 46, (S)-5-(((7-((4′-fluoro-2-methyl-[1,1′-biphenyl]-3-yl)methoxy)-4-((2-(hydroxymethyl)piperidin-1-yl)methyl)-2,3-dihydro-1H-inden-5-yl)oxy)methyl)nicotinonitrile] | 100 to 500 |
| Cc1c(COc2cc(OCc3cncc(C#N)c3)c(CN3CC4(CC4)C[C@H]3CO)c3c2CCC3)cccc1-c1ccc(F)cc1 [Example 47, (S)-5-(((7-((4′-fluoro-2-methyl-[1,1′-biphenyl]-3-yl)methoxy)-4-((6-(hydroxymethyl)-5-azaspiro[2.4]heptan-5-yl)methyl)-2,3-dihydro-1H-inden-5-yl)oxy)methyl)nicotinonitrile] | 100 to 500 |
| Cc1c(COc2cc(OCc3cncc(C#N)c3)c(C(=O)N3CCC[C@H]3CO)c3c2CCC3)cccc1-c1ccccc1 [Example 50, (S)-5-(((4-(2-(hydroxymethyl)pyrrolidine-1-carbonyl)-7-((2-methyl-[1,1′-biphenyl]-3-yl)methoxy)-2,3-dihydro-1H-inden-5-yl)oxy)methyl)nicotinonitrile] | 100 to 500 |
